According to ChEMBL document CHEMBL5104119, “Miniproteins in medicinal chemistry” (Bioorg Med Chem Lett, 2022):
One block for each compound: values may come before it.

Columns and labels:
[1] = Antiproliferative activity against human PBMC cells assessed as cell growth inhibition incubated for 10 mins by CFSE staining based flow cytometric analysis; format: toxicity
T-cell line = experiment: Immunomodulatory activity in human T cells assessed as inhibition of IL-2 production incubated for 15 mins by FACSCalibur flow cytometry analysis; format: functional, cell-based; conditions: 0.25 h
[2] = molecular target: Neuronal acetylcholine receptor; alpha9/alpha10 (Homo sapiens, UniProt Q9GZZ6+Q9UGM1); experiment: Inhibition of human nAChR alpha9alpha10 expressed in Xenopus laevis oocytes holding potential of -70 mV by voltage-clamp based electrophysiological method; format: cell-based
[3] = system: Human immunodeficiency virus 1; experiment: Antiviral activity against recombinant luciferase-expressing HIV-1 infected in HEK293T cells incubated for 48 hr by luciferase assay based luminometer analysis; format: functional, organism-based; conditions: Human immunodeficiency virus 1, HEK-293T
[4] = system: Human immunodeficiency virus; experiment: Antiviral activity against HIV infected in human HeLa cells expressing CD4-LTR-beta-gal assessed as inhibition of syncytia formation measured after 15 hrs by 5-bromo-4-chloro-3-indolyl-beta-D-galactoside staining based colorimetry assay; format: functional, organism-based; conditions: Human immunodeficiency virus 1, HeLa

Sequence of Neuronal acetylcholine receptor; alpha9/alpha10 (Q9UGM1 whole entry): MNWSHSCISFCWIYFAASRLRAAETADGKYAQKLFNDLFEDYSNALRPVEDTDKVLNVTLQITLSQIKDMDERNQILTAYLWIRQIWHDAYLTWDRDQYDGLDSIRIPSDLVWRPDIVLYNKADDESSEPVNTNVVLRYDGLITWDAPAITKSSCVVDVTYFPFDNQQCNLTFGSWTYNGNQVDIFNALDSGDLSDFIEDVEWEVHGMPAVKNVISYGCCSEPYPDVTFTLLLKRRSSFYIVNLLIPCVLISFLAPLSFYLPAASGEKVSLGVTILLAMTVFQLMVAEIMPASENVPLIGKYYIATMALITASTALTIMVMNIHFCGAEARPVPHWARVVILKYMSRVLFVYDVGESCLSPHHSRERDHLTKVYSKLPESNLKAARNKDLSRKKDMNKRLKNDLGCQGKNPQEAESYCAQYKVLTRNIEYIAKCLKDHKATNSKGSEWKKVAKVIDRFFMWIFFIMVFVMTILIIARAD
Sequence of Neuronal acetylcholine receptor; alpha9/alpha10 (Q9GZZ6 whole entry): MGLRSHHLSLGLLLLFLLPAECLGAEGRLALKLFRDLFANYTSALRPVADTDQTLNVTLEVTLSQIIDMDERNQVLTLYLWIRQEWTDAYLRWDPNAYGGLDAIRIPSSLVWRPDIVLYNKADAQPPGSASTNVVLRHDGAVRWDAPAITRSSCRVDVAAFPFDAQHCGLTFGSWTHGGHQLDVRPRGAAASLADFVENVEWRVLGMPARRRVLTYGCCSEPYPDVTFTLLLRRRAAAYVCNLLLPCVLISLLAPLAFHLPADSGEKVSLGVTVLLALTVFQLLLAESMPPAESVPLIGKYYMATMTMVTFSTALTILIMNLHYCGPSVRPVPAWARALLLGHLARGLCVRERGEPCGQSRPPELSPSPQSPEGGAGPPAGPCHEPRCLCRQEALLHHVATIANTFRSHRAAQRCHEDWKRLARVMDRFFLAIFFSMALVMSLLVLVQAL

Compound: CC(C)C[C@@H]1NC(=O)CNC(=O)[C@H](CC(N)=O)NC(=O)[C@H](CCCNC(=N)N)NC(=O)[C@H]([C@@H](C)O)NC(=O)[C@@H]2CSSC[C@@H]3NC(=O)[C@H]([C@@H](C)O)NC(=O)CNC(=O)CNC(=O)[C@H](C(C)C)NC(=O)[C@@H]4CSSC[C@H](NC(=O)[C@H]([C@@H](C)O)NC(=O)[C@H](CSSC[C@H](NC(=O)[C@H](C(C)C)NC(=O)[C@@H]5CCCN5C1=O)C(=O)NCC(=O)N[C@@H](CCC(=O)O)C(=O)N[C@@H]([C@@H](C)O)C(=O)N4)NC(=O)CNC(=O)[C@@H]1CCCN1C(=O)[C@H]([C@@H](C)O)NC(=O)[C@H](CC(N)=O)NC3=O)C(=O)N[C@@H](CO)C(=O)N[C@@H](Cc1c[nH]c3ccccc13)C(=O)N1CCC[C@H]1C(=O)N[C@@H](C(C)C)C(=O)N2
IC50 at 10 min [1]: 2900 nM

IC50 (T-cell line): 1900 nM
Compound: CC(C)C[C@@H]1NC(=O)CNC(=O)[C@H](CC(N)=O)NC(=O)[C@H](CCCNC(=N)N)NC(=O)[C@H]([C@@H](C)O)NC(=O)[C@@H]2CSSC[C@@H]3NC(=O)[C@H]([C@@H](C)O)NC(=O)CNC(=O)CNC(=O)[C@H](C(C)C)NC(=O)[C@@H]4CSSC[C@H](NC(=O)[C@H](CCCCN)NC(=O)[C@H](CSSC[C@H](NC(=O)[C@H](C(C)C)NC(=O)[C@@H]5CCCN5C1=O)C(=O)NCC(=O)N[C@@H](CCC(=O)O)C(=O)N[C@@H]([C@@H](C)O)C(=O)N4)NC(=O)CNC(=O)[C@@H]1CCCN1C(=O)[C@H]([C@@H](C)O)NC(=O)[C@H](CC(N)=O)NC3=O)C(=O)N[C@@H](CO)C(=O)N[C@@H](Cc1c[nH]c3ccccc13)C(=O)N1CCC[C@H]1C(=O)N[C@@H](C(C)C)C(=O)N2

Compound: C[C@@H](O)[C@@H]1NC(=O)[C@@H]2CSSC[C@H](C(=O)N[C@@H](Cc3ccc(O)cc3)C(=O)O)NC(=O)[C@H](CCC(N)=O)NC(=O)[C@H](Cc3ccc(O)c(I)c3)NC(=O)[C@H](CCCNC(=N)N)NC(=O)[C@H](CSSC[C@H](NC(=O)CN)C(=O)N2)NC(=O)[C@H](CCCNC(N)=O)NC(=O)[C@@H]2CCCN2C(=O)[C@H](CC(=O)O)NC1=O
IC50 [2]: 1.5 nM

IC50 [3]: 2.1 nM
IC50 [4]: 0.55 nM
Compound: Ac-WMEWDREINNYTSLIEESQNQQEKNEQELL-NH2
